Measured values from PubChem BioAssay AID602354 (The Scripps Research Institute Molecular Screening Center, 2012).

What was measured:
[1] = target: Diacylglycerol lipase-beta (Mus musculus) (UniProt Q91WC9); test: in situ DAGLb and ABHD6 inhibitor potency – cell-based, gel-based competitive ABPP, fluorescence, dose response, late-stage follow-up (AID 602354); conditions: mouse cells in situ, DAGLb
[2] = target: Monoacylglycerol lipase ABHD6 (Mus musculus) (UniProt Q8R2Y0); test: as above; conditions: mouse cells in situ
Monoacylglycerol lipase ABHD6 (Mus musculus), sequence (Q8R2Y0 whole entry, looked up): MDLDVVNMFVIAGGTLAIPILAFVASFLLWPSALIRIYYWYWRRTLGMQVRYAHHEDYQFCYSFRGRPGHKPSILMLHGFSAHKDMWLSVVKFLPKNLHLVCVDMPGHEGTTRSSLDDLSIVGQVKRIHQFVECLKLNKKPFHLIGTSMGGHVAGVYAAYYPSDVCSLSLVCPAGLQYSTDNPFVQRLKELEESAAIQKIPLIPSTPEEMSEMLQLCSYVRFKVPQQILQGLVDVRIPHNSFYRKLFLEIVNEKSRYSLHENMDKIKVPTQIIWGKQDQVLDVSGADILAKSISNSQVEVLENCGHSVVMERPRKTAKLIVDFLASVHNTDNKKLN

Diacylglycerol lipase-beta (Mus musculus), sequence (Q91WC9 whole entry, looked up): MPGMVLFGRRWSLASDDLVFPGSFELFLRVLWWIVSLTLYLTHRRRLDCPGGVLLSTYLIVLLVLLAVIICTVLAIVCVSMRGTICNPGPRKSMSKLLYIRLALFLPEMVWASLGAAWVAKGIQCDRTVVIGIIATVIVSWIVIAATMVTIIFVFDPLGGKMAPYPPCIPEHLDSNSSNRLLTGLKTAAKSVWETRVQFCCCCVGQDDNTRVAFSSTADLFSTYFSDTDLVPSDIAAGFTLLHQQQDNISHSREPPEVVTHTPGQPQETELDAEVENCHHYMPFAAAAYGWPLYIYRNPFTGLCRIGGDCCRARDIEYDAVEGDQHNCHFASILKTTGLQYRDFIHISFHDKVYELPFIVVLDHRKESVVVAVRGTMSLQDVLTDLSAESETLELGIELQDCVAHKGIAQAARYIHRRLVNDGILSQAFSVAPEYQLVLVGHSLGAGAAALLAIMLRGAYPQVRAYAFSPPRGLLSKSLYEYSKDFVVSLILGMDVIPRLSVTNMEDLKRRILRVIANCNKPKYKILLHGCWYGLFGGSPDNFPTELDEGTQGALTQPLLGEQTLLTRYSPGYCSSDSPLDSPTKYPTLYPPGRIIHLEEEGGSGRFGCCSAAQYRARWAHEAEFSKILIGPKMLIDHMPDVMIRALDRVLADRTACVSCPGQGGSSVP

O=C(N1CCCCC1Cc1ccccc1)n1cc(-c2ccc(-c3ccccc3)cc2)nn1 (centres undefined)
IC50 [1]: 16 nM
IC50 [2]: 0.46 nM

COc1ccccc1-c1ccc(-c2cn(C(=O)N3CCCCC3Cc3ccccc3)nn2)cc1 (centres undefined)
IC50 [1]: 12 nM
IC50 [2]: 0.48 nM
